According to patent US8623377B2, “Joint-homing peptides and uses thereof” (University of Maryland, Baltimore, priority 2011, dated 2014):

Columns and labels:
[1] = tested on: adjuvant arthritis in Lewis rats; assay: Antiarthritic activity in the adjuvant arthritis (AA) model, arthritic score; format: in vivo, Lewis rat
Method: FIG. 3A: Group of arthritic Lewis rats (n=4 per group) were injected with a peptide (AD, NQR, or RGD) or PBS i.v. on the days indicated by the arrows either at the onset or just after the onset of arthritis. The its were monitored regularly for the disease severity, presented as “arthritic score”. […] The sections were graded for histopathological features associated with arthritis. B, bone; C, cartilage, JS, joint space; SIC, synovium-infiltrating cells.
The synthetic peptide corresponding to the selected phage-encoded peptide was diluted in PBS and injected i.v. into Lewis rats beginning either at the onset or just after the onset of arthritis after Mtb injection. The peptide was injected to rats on alternate days at a dose of 1 or 2 mg/kg body weight. A total of three or four injections were given to each rat. Control animals received an equal volume of PBS. All rats were graded regularly for clinical signs of arthritis (36). The hind paws of these rats were harvested and processed for histopathological examination.
AA was induced in Lewis rats by immunizing them with 1 mg/rat of heat-killed M. tuberculosis H37Ra (Mtb; Difco) in 200 μL of mineral oil (Sigma-Aldrich) via s.c. injection at the base of the tail. Beginning on day 7 after immunization, the rats were observed regularly for signs of arthritis in the paws. The severity of arthritis was evaluated based on erythema and swelling as described previously. The highest score for each paw was 4, and the total maximum score for each rat was 16. The course of AA in the Lewis rat involved the following phases: incubation (days 0-8), onset (days 9-11), peak (days 15-18), and recovery (days 21-27).

LPS-stimulated HUVECs = assay: Internalization of FITC-labeled peptide in LPS-stimulated HUVECs; format: cell-based, human
Method: (§1) FIG. 2A: Binding of specific phage encoding the peptide NQR or ADK to the vascular endothelium was visualized by immunohistochemical examination of the hind paw section of the rthritic rats using the anti-T7 phage antibody. The binding of phage was tested in the presence or absence of the corresponding synthetic peptide. BV, blood vessel, L, lumen. FIG. 2B: Arthritic rats were injected with specific phage (ADK phage, left; NQR phage, center; or RGD phage, right) in the presence or absence of the corresponding synthetic peptide, and the titer of the phage recovered from the synovial tissue was assessed. *P<0.01. FIG. 2C: CD31-expressing endothelial cells were isolated from arthritic rat joints (upper) or the liver (lower) and stained with DAPI (blue), FITC-labeled peptide NQR (green), or Alexa Fluor 594-labeled anti-rat CD31 antibody (red). Also shown is the staining overlay (merge) of green and red (yellow). The inset is an enlarged view of a single cell; original magnification, 20×. FIG. 2D: LPS-stimulated HUVECs were stained with DAPI and FITC-labeled peptide NQR and observed under a fluorescence microscope, original magnification, 100×.

[2] = tested on: CD31-expressing endothelial cells from an arthritic rat joint; assay: Binding of fluorescein-labeled peptide to CD31-expressing endothelial cells from arthritic rat joint; format: cell-based
Method: as §1, with “100×. […]” for “100×.”

HUVECs = assay: Endothelial tube (tubule) formation on Matrigel with VEGF; format: cell-based, human; details: VEGF 10 ng/mL, peptide 0-100 μg/mL
Method: FIG. 4A: Draining lymph node leukocytes from arthritic rats were dye-tagged with PKH67 and injected i.v. into arthritic rats. One group of rats was left untreated, and the other groups were treated with ADK or NQR peptide. After 24 hours, the synovium-infiltrating cells (SICs) were harvested from the joints, subjected to cytospin, and analyzed by fluorescence microscopy (left). In parallel, another set of synovium-infiltrating cells were stained with PE-labeled anti-CD3 or anti-CD 11b/c+ antibody and analyzed by flow cytometry (right). FIG. 4B: HUVECs were cultured on Matrigel-coated wells for 24 hours in the presence of VEGF (10 ng/mL) and various concentrations (0-100 μg/mL) of NQR (left), ADK (center), and RGD (right) peptides. The branches of vessel-like tubes were counted. A reprensentative set of results is shown. *P<0.05, compared with the VEGF-alone control.
HUVECs (1×10^4) were cultured in 80 μL/well of growth factor-reduced Matrigel (BD Biosciences) in a 96-well plate in 100 μL/well of F-12K medium (with no supplements). These cells were then treated for 20 h with VEGF (R&D Systems) in the presence or absence of different concentrations of peptides (NQR, ADK, or RGD). Tubule formation was observed under a microscope, quantitated, and photographed.

Sequence: CLDNQRPKC (Synthetic peptide homing to joint in an animal) [NQR peptide, joint-homing phage-derived synthetic peptide]
- difference in arthritic score versus PBS/ADK ([1]; from day 15 to day 27 (FIG. 3A center)): significant
- difference in arthritic score versus PBS ([1]; from day 15 to day 27 (FIG. 3A right)): significant
- suppression of the arthritic process ([1]; i.v. injection around the time of onset of arthritis, 1 or 2 mg/kg on alternate days): suppressed the arthritic process in a dose-dependent manner
- down-modulation of arthritis ([1]; injected just after the onset of AA): effective in down-modulating arthritis
- cellular uptake of peptide (LPS-stimulated HUVECs; FITC-labeled peptide, LPS-stimulated HUVECs): transported across the cell membrane into the cytoplasm and the nucleus
- time by which most peptide accumulated in the perinuclear area (LPS-stimulated HUVECs; after addition to the cells): ≤ 45 min
- binding of fluorescein-labeled peptide to joint-derived endothelial cells ([2]; CD31-expressing endothelial cells, arthritic rat joint): bound specifically to the joint-derived
- colocalization of peptide with CD31 ([2]; joint-derived endothelial cells): colocalized with CD31
- effect on endothelial cell tube formation (HUVECs): inhibited tube formation
